Assay results as given in patent publication US4851426A, “Ethoxycarbonyloxy ethyl esters of non-steroidal anti-inflammatory carboxylic acids and pharmaceutical compositions thereof” (Teva Pharmaceutical Industries, Ltd., priority 1982, dated 1989).

Tests used:
[1] = tested on: inflamed foot of the rat (brewers' yeast); assay: Analgesic action, pressure reaction threshold of yeast-inflamed foot (Basile-Analgesy-Meter); format: in vivo; set-up: % of control 1 hr / % of control 3 hrs: concentration or dose not given beside the values; settings: for % effect vs. parent compound 1 hr / % effect vs. parent compound 3 hrs: relative to parent; for % of control 1 hr / % of control 3 hrs: pressure reaction threshold, rat, oral
Excerpt: Male rats, weighing 95-140 g, 10 rats per experimental group. The major reason for selecting rats of this weight range is the ease in handling smaller sized animals in this particular test. Animals are fed and provided drinking water ad libitium until time of testing. […] (Note: Brewers' yeast, locally obtainable from "Abir" breweries, may be kept under refrigeration for a period of at least 6 months). […] This instrument is basically a device which […] force that increases at a constant rate (a certain number of grams per second). […] Note: In case weight discs are being used to increase the force of pressure applied, the same number of discs should be employed throughout the entire experiment for both experimental and control animals. For detailed operation of the analgesy-meter reference to the specific instructions of the instrument given in the appendix. a. […] The differences in the various Mean Group Values between treatment and control group are analyzed for statistical significance using the Student t-Test.

[2] = Ulcerogenicity; format: in vivo, rat; set-up: key to UI max: ulcer index = mean sum of individual lesion lengths per rat; settings: rat, in vivo; dose causing UI50; female rats, oral, 5 hours; read-out: UD50
Description: (§1) Methods: Six groups of 10 female Charles River rats weighing 170-230 g were used for each drug. […] Drugs were freshly suspended in water with 1% carboxymethyl cellulose and administered by stomach tube. Rats treated were sacrificed 5 hours after oral gavage. Ulcers were evaluated under a magnifying lens, after the stomach had been dissected out, opened along the lesser curvature and rinsed.
(§2) Ulcer index (UI) for each group was calculated as the mean sum of the lengths of the individual lesions in each rat.
(§3) Apparent maximal ulcerogenicity was calculated from regression analysis of the ascending parts of each dose-response curve.

[3] = tested on: stomach ulcers in rats; assay: Ulcerogenicity; format: in vivo, rat; set-up: key to UI max: ulcer index = mean sum of individual lesion lengths per rat; settings: for UI50: 50% of ulcerogenic index max, + on value: dose response curve acquired bell shape
Description: as §1, §2, §3

[4] = hydrolysis in aqueous acidic medium (simulated gastro-intestinal juices), HPLC; format: physicochemical; settings: for Ester (%): 0 min; for Ester (%), in words: same acidic conditions, 37° C.; for stability of ECOE ester against hydrolysis in acidic medium: acidic medium (simulated gastric juice)
Description: The rates of hydrolysis of 2-(acetyloxy)benzoic acid (Aspirin) ethoxy carbonyloxy ethyl ester to salicylethoxy carbonyloxy ethyl ester in the aqueous acidic medium (simulated gastro-intestinal juices) were determined by dissolving the ester to a pre-determined concentration in the acidic medium containing THF: aqueous conc. HCl=1:1 and the rate of hydrolysis at 37° C. was measured by the HPLC method.
The rates of hydrolysis of acetyl salicylic acid ethoxy carbonyloxy ethyl ester to salicyl-ethoxy carbonyloxy ethyl ester in aqueous acidic system (simulated gastrointestinal juices) are given in the following table:
Ethoxy carbonyloxy ethyl ester of Aspirin was dissolved to a predetermined concentration in an acidic aqueous medium (simulated gastric juice)--mixture THF; aqueous conc. HCl (1:1) and the rate of hydrolysis at 37° C. was measured by HPLC method.

[5] = Bioavailability-pharmacokinetic profile in rats (plasma salicylate, fluorometry); format: in vivo; settings: in words, rat
Description: Methods: Female Charles River rats weighing 200-250 g were used. Rates were starved for a 24 hour period prior to each experiment, while water was allowed ad libitum. […] Plasma salicylate concentrations were measured by fluorometry according to Frey and El-Sayed (Arch. Int. Pharmacodyn. 230: 300, 1977). […] Statistical evaluation was effected by (unpaired) Student t test.

[6] = dose causing max ulcerogenic index
[7] = dose-response of ulcer index, female rats, oral, 5 hours
[8] = THF: aqueous conc. HCl 1:1, 37° C.

Row | SMILES | % effect vs. parent compound 1 hr [1] [%] | % effect vs. parent compound 3 hrs [1] [%] | % of control 1 hr [1] [%] | % of control 3 hrs [1] [%] | TD50 at 5 h [2] [µmol/kg] | UI50 [3] | UD max [3, 6] [mmol/kg] | Slope [3, 7] [Uxkg/mmole] | UI max ([3]; ulcerogenic index max) | UD max ([3]; rat, in vivo) [mmol/kg] | UI max ([3]; rat, in vivo) | Slope ([3]; rat, in vivo, po) [Uxkg/mmole] | other results
1 | CCOC(=O)OC(C)OC(=O)C(C)c1ccc2cc(OC)ccc2c1 (single isomer, unassigned; (+)) [Naproxen-ECOE ester, (+)-6-Methoxy-α-methyl-2-naphthaleneacetic acid 1'-ethoxycarbonyloxy ethyl ester] | 108 | 91 | 125 | 121 | 590 | 32.5 | 1.0 | 63.5 ± 0.59 | 65.0 | – | – | – | –
2 | CCOC(=O)OC(C)OC(=O)c1ccccc1O (stereo not shown) [1'-ethoxy carbonyloxy ethyl ester of salicyclic acid] | – | – | – | – | – | – | – | – | – | – | – | – | Ester (%) [4, 8]: 100%; Ester (%), in words ([4]; 150 min): unchanged; Ester (%), in words ([4]; 180 min): unchanged; Ester (%), in words ([4]; 210 min): unchanged; Ester (%), in words ([4]; 240 min): unchanged; stability of ECOE ester against hydrolysis in acidic medium ([4]; in words, listed as 1'-ethoxycarbonyloxy ethyl ester of salicylic acid): stable in acidic medium; stability of ECOE ester against hydrolysis in acidic medium ([4]; in words, listed as Salicyl 2-ethoxy carbonyloxy ethyl ester): stable; stability of ECOE ester against hydrolysis in acidic medium ([4]; in words, listed as salicyclic acid 2-ethoxycarbonyloxy ethyl ester): stable
3 | CC(=O)Oc1ccccc1C(=O)O [Aspirin, 2-(acetyloxy)benzoic acid, reference compound] | – | – | 126 | 100 | 20 | – | – | – | – | 0.4 | 92.6 | 33.7 ± 11.5 | –
4 | CCOC(=O)OC(C)OC(=O)c1ccccc1OC(C)=O (stereo not shown) [Aspirin-ECOE ester, 1'-ethoxy carbonyloxy ethyl ester of 2-(acetyloxy)benzoic acid (Aspirin)] | 141 | 150 | 178 | 148 | 20 | 20.5 | 0.4 | 13.7 ± 6.5 | 40.9 | – | – | – | Ester (%) [4, 8]: 100%; remaining at 0.5 h ([4]; 30 min, THF: aqueous conc. HCl 1:1, 37° C., read-out: Ester (%)): 96%; remaining at 1 h ([4]; 60 min, THF: aqueous conc. HCl 1:1, 37° C., read-out: Ester (%)): 92%; remaining at 1.5 h ([4]; 90 min, THF: aqueous conc. HCl 1:1, 37° C., read-out: Ester (%)): 90%; remaining at 2 h ([4]; 120 min, THF: aqueous conc. HCl 1:1, 37° C., read-out: Ester (%)): 90%; remaining at 2.5 h ([4]; 150 min, THF: aqueous conc. HCl 1:1, 37° C., read-out: Ester (%)): 84%; remaining at 3 h ([4]; 180 min, THF: aqueous conc. HCl 1:1, 37° C., read-out: Ester (%)): 82%; remaining at 3.5 h ([4]; 210 min, THF: aqueous conc. HCl 1:1, 37° C., read-out: Ester (%)): 76%; hydrolysis of acetyl group in acidic medium ([4]; in words, acetyl group, simulated gastric juices): readily hydrolysed off; stability of ECOE ester against hydrolysis in acidic medium ([4]; in words): not readily hydrolysed off; ulcerogenicity compared with parent ([3]; in words, vs parent acid): much smaller ulcerogenic liability; bioavailability of salicylate ([5]; oral 0.4 mmole/kg): seems complete; rate of appearance of salicylate ([5]; oral, vs plain aspirin): seems slower
5 | O=C(O)Cc1ccccc1Nc1c(Cl)cccc1Cl [Diclofenac, reference compound] | – | – | – | – | – | – | – | – | – | 0.6 | 61.8 | 31.1 ± 8.7 | –
6 | CCOC(=O)OC(C)OC(=O)Cc1ccccc1Nc1c(Cl)cccc1Cl (stereo not shown) [Diclofenac-ECOE ester] | 86 | 82 | 106 | 110 | – | – | 0.6 | 21.1 | 34.9 | – | – | – | –
7 | CC(C)Cc1ccc(C(C)C(=O)O)cc1 (stereo not shown) [Ibuprofen, reference compound] | – | – | 152 | 145 | 325 | – | – | – | – | 2.8 | 52.0 | 38.1 ± 8.0 | –
8 | CCOC(=O)OC(C)OC(=O)C(C)c1ccc(CC(C)C)cc1 (stereo not drawn) [Ibuprofen-ECOE ester, α-Methyl-4-(2-methylpropyl)benzene--acetic acid 1'-ethoxycarbonyloxy ethyl ester] | 115 | 89 | 176 | 129 | 300 | 13.0 | 0.7 | 36.7 ± 8.5 | 26.0 | – | – | – | –
9 | COc1ccc2c(c1)c(CC(=O)O)c(C)n2C(=O)c1ccc(Cl)cc1 [Indomethacin, reference compound] | – | – | 128 | 146 | – | – | – | – | – | 0.32 | 60 | 50 | –
10 | CCOC(=O)OC(C)OC(=O)Cc1c(C)n(C(=O)c2ccc(Cl)cc2)c2ccc(OC)cc12 (stereo not shown) [Indomethacin-ECOE ester, 1-(p-Chlorobenzoyl)-5-methoxy-2-methylindole-3-acetic acid 1'-ethoxycarbonyloxy ethyl ester] | 102 | 105 | 130 | 153 | – | – | 0.32 | 34 ± 13.8 | 42.0 | – | – | – | –
11 | COc1ccc2cc([C@H](C)C(=O)O)ccc2c1 [Naproxen, reference compound] | – | – | 116 | 133 | – | 31.0 | 2.0 | 41.0 ± 14.2 | 62.0 | – | – | – | –
